Assay results taken from patent US20090311237A1, “Combination therapy using a soluble hyaluronidase and a bisphosphonate” (priority 2008, published 2009).
Several values for one entry are separate records, joined by “and”; a condition that tells them apart may be missing. Equal entries are not always repeated. Where two headings read alike, the source gives them in different places.

Experiment: Phase 1 Stage 1 clinical pharmacokinetics of SC ZA co-administered with rHuPH20
Type: in vivo, human
Parameters: key to Mean Conc. / Median Conc.: BLQ = blow limit for quantitation
Conditions: serum, serum; for MAT: subcutaneous, 100 mL, 24000 Units rHuPH20, read-out: MAT (mean absorption time = SC MRT − IV MRT); for half-life: read-out: T½ λz (converted)
Experimental: A pharmacokinetic study of zoledronic acid (ZA) co-administered with rHuPH20 in human subjects was conducted. The primary objective of the study was to determine the bioavailability of zoledronic acid dosed via subcutaneous (SC) co-administration with human recombinant hyaluronidase PH20 (rHuPH20). […] The patients were administered the prescribed dosage formulations as follows: Cohorts 1-5 were administered a single subcutaneous infusion in a dosage volume of 100 ml at a rate of 3 mL/min. […] The dosing solution is administered via needle or catheter into the SC space of the left anterior thigh (midway between the anterior iliac crest and the cephalad border of the patella). For cohorts 1-5, the dosing solutions were administered by a controlled rate infusion pump at approximately 3 mL/minute. […] The dosing solutions were administered by syringe push bolus injection. […] Serum concentration of ZA was determined using a qualified LC-MS-MS assay after derivatization with diazomethane (Zhu, L S et al. (2006) Rapid Commun. […] The assay range was from 2.0 to 400 ng/mL with a lower limit of quantitation (LLOQ) at 2.0 ng/mL. […] Non-compartmental analysis was used for derivation of primary and secondary pharmacokinetic (PK) parameters. […] Summary statistics (mean, standard deviation, and median) were calculated using JMP or Microsoft Excel.

[1] = ZA 0.25 mg SC infusion + 24000 Units rHuPH20, 12 h post infusion, n=3
[2] = ZA 0.25 mg SC infusion + 24000 Units rHuPH20, 24 h post infusion, n=3
[3] = ZA 0.25 mg SC infusion + 24000 Units rHuPH20, 48 h post infusion, n=3

O=P(O)(O)C(O)(Cn1ccnc1)P(=O)(O)O [ZA, 1-hydroxy-2-(1H-imidazol-1-yl)ethylidene-1,1-bisphosphonic acid] gave a concentration at 6 h (human, sc, ZA 5 mg SC infusion + 24000 Units rHuPH20, 6 h post infusion, n=3, read-out: Median Conc.) of 22.3 ng/mL, a concentration at 8 h (human, sc, ZA 5 mg SC infusion + 24000 Units rHuPH20, 8 h post infusion, individual subjects, read-out: Zoledronic Acid Concentration) of 9.44 ng/mL and a concentration at 8 h (human, sc, ZA 5 mg SC infusion + 24000 Units rHuPH20, 8 h post infusion, n=3, read-out: Mean Conc.) of 11 ng/mL. It also gave a concentration at 8 h (human, sc, ZA 5 mg SC infusion + 24000 Units rHuPH20, 8 h post infusion, n=3, read-out: Median Conc.) of 11 ng/mL, a concentration at 12 h (human, sc, ZA 5 mg SC infusion + 24000 Units rHuPH20, 12 h post infusion, individual subjects, read-out: Zoledronic Acid Concentration) of 3.91 ng/mL and a concentration at 12 h (human, sc, ZA 5 mg SC infusion + 24000 Units rHuPH20, 12 h post infusion, n=3, read-out: Mean Conc.) of 4.51 ng/mL. It also gave a concentration at 12 h (human, sc, ZA 5 mg SC infusion + 24000 Units rHuPH20, 12 h post infusion, n=3, read-out: Median Conc.) of 4.61 ng/mL, a concentration at 24 h (human, sc, ZA 5 mg SC infusion + 24000 Units rHuPH20, 24 h post infusion, individual subjects, read-out: Zoledronic Acid Concentration) of 2.15 ng/mL and a concentration at 24 h (human, sc, ZA 5 mg SC infusion + 24000 Units rHuPH20, 24 h post infusion, n=3, read-out: Mean Conc.) of 2.45 ng/mL. The concentration at 24 h (human, sc, ZA 5 mg SC infusion + 24000 Units rHuPH20, 24 h post infusion, n=3, read-out: Median Conc.) was 2.23 ng/mL, the concentration at 48 h (human, sc, ZA 5 mg SC infusion + 24000 Units rHuPH20, 48 h post infusion, individual subjects, read-out: Zoledronic Acid Concentration) was 1.28 ng/mL and the concentration at 48 h (human, sc, ZA 5 mg SC infusion + 24000 Units rHuPH20, 48 h post infusion, n=3, read-out: Mean Conc.) was 1.55 ng/mL. It also gave a concentration at 48 h (human, sc, ZA 5 mg SC infusion + 24000 Units rHuPH20, 48 h post infusion, n=3, read-out: Median Conc.) of 1.63 ng/mL, an MAT (human, 0.5 mg, ZA 0.5 mg SC, individual subjects) of 0.96 h and an MAT (human, 1 mg, ZA 1 mg SC, individual subjects) of 1.68 h. For the same molecule, the half-life (human, Subj 1, ZA 0.0045 mg/kg SC, inf 0.554 hr, PH20 23928 U) was 1.88 h, the half-life (human, Subj 8, ZA 0.0032 mg/kg SC, inf 0.531 hr, PH20 22944 U) was 3.09 h and the half-life (human, Subj 11, ZA 0.0033 mg/kg SC, inf 0.554 hr, PH20 23928 U) was 2.2 h. For the same molecule, the half-life (human, Subj 21, ZA 0.0066 mg/kg SC, inf 0.556 hr, PH20 24000 U) was 2.27 h, the half-life (human, Subj 29, ZA 0.0339 mg/kg SC, inf 0.556 hr, PH20 24000 U) was 8.7 h and the half-life (human, Subj 32, ZA 0.0350 mg/kg SC, inf 0.556 hr, PH20 24000 U) was 22 h. The half-life (human, Subj 37, ZA 0.0791 mg/kg SC, inf 0.556 hr, PH20 24000 U) was 23.4 h, the half-life (human, Subj 38, ZA 0.0706 mg/kg SC, inf 0.554 hr, PH20 23952 U) was 24.4 h and the half-life (human, Subj 46, ZA 0.0877 mg/kg SC, inf 0.276 hr, PH20 12000 U) was 20.8 h. For the same molecule, the half-life (human, Subj 71, ZA 0.0781 mg/kg SC, inf 0.250 hr, PH20 6000 U) was 19.2 h, the half-life (human, Subj 74, ZA 0.0794 mg/kg SC, inf 0.250 hr, PH20 6000 U) was 23.7 h and the “Zoledronic Acid Concentration” value (ZA 0.25 mg SC infusion + 24000 Units rHuPH20, 0 h post infusion, individual subjects, listed as Zoledronic Acid) was 4.69 ng/mL. For the same molecule, the “Zoledronic Acid Concentration” value (ZA 0.25 mg SC infusion + 24000 Units rHuPH20, 10 min post infusion, individual subjects, listed as Zoledronic Acid) was 4.97 ng/mL and 4.87 ng/mL, the “Zoledronic Acid Concentration” value (ZA 0.25 mg SC infusion + 24000 Units rHuPH20, 0.5 h post infusion, individual subjects, listed as Zoledronic Acid) was 5.17 ng/mL and 6.25 ng/mL and the “Zoledronic Acid Concentration” value (ZA 0.25 mg SC infusion + 24000 Units rHuPH20, 1 h post infusion, individual subjects, listed as Zoledronic Acid) was 5.67 ng/mL and 6.60 ng/mL. The “Zoledronic Acid Concentration” value (ZA 0.25 mg SC infusion + 24000 Units rHuPH20, 2 h post infusion, individual subjects, listed as Zoledronic Acid) was 4.33 ng/mL and 5.44 ng/mL, the “Zoledronic Acid Concentration” value (ZA 0.25 mg SC infusion + 24000 Units rHuPH20, 4 h post infusion, individual subjects, listed as Zoledronic Acid) was 3.45 ng/mL and 3.06 ng/mL and the “Zoledronic Acid Concentration” value (ZA 0.25 mg SC infusion + 24000 Units rHuPH20, 6 h post infusion, individual subjects, listed as Zoledronic Acid) was 2.02 ng/mL and 1.35 ng/mL. For the same molecule, the “Zoledronic Acid Concentration” value (ZA 0.25 mg SC infusion + 24000 Units rHuPH20, 8 h post infusion, individual subjects, listed as Zoledronic Acid) was 1.11 ng/mL and 0.79 ng/mL, the “Zoledronic Acid Concentration” value (ZA 0.25 mg SC infusion + 24000 Units rHuPH20, 12 h post infusion, individual subjects) was “BLQ < (0.500) ng/mL” and the “Mean Conc.” value [1] was “BLQ”. The “Median Conc.” value [1] was “BLQ”, the “Zoledronic Acid Concentration” value (ZA 0.25 mg SC infusion + 24000 Units rHuPH20, 24 h post infusion, individual subjects) was “BLQ < (0.500) ng/mL” and the “Mean Conc.” value [2] was “BLQ”. For the same molecule, the “Median Conc.” value [2] was “BLQ”, the “Zoledronic Acid Concentration” value (ZA 0.25 mg SC infusion + 24000 Units rHuPH20, 48 h post infusion, individual subjects) was “BLQ < (0.500) ng/mL” and the “Mean Conc.” value [3] was “BLQ”. For the same molecule, the “Median Conc.” value [3] was “BLQ” and the “Zoledronic Acid Concentration” value (ZA 0.5 mg SC infusion + 24000 Units rHuPH20, 0 h post infusion, individual subjects, listed as Zoledronic Acid) was 13.60 ng/mL.
